Laboratory results: patent US20200017496A1 (priority 2017, published 2020)
Where two headings read alike, the source gives them in different places.

Columns and labels:
Assay type in all cases: cell-based
[1] = system: Enterobacter cloacae (ECL) isolates; test: MIC of compounds alone and combined with antibacterials, broth microdilution (CLSI)
In short: (§1)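 First, log-phase suspensions are brought to a final 5·10^5 CFU/mL in cation-adjusted Mueller-Hinton broth. Then plates with compound, antibacterial, or both incubate 16-20 h at 35° C under ambient air. Finally, visual inspection gives the lowest growth-preventing concentration for each agent.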

[2] = system: Enterobacter aerogenes (EAE) isolates; test: as above; details: for MIC: Klebsiella aerogenes, read-out: MIC
In short: as §1

[3] = system: Proteus mirabilis (PMI) isolates; test: microbe, parasite or virus in culture; details: for MIC: Proteus mirabilis, read-out: MIC
In short: as §1

`C=CC1=C(C(=O)O)N2C(=O)[C@@H](NC(=O)/C(=N\OCC(=O)O)c3csc(N)n3)[C@H]2SC1` [FIX, Cefixime] was tested, and the “MIC ATB in combination” value ([1]; strain ECL UFR195, antibacterial combined with AF1 @ 8 μg/mL) was “<=0.25 μg/mL”, the “MIC ATB in combination” value ([1]; strain ECL UFR196, antibacterial combined with AF1 @ 4 μg/mL) was 16 µg/mL and the “MIC ATB in combination” value ([1]; strain ECL UFR196, antibacterial combined with AF1 @ 8 μg/mL) was 4 µg/mL. For the same molecule, the “MIC ATB in combination” value ([1]; strain ECL UFR197, antibacterial combined with AF1 @ 4 μg/mL) was 16 µg/mL, the “MIC ATB in combination” value ([1]; strain ECL UFR197, antibacterial combined with AF1 @ 8 μg/mL) was 1 µg/mL and the “MIC ATB in combination” value ([1]; strain ECL UFR198, antibacterial combined with AF1 @ 4 μg/mL) was 64 µg/mL. For the same molecule, the “MIC ATB in combination” value ([1]; strain ECL UFR198, antibacterial combined with AF1 @ 8 μg/mL) was 64 µg/mL, the “MIC ATB in combination” value ([2]; EAE 49469, AF1 @ 4 μg/mL) was 32 µg/mL and the “MIC ATB in combination” value ([2]; EAE 49469, AF1 @ 8 μg/mL) was 16 µg/mL. For the same molecule, the “MIC ATB in combination” value ([2]; EAE 200261, AF1 @ 4 μg/mL) was 32 µg/mL, the “MIC ATB in combination” value ([2]; EAE 200261, AF1 @ 8 μg/mL) was 4 µg/mL and the “MIC ATB in combination” value ([2]; EAE UFR199, AF1 @ 4 μg/mL) was 1 µg/mL. The “MIC ATB in combination” value ([2]; EAE UFR199, AF1 @ 8 μg/mL) was 0.25 µg/mL, the “MIC ATB in combination” value ([2]; EAE UFR201, AF1 @ 4 μg/mL) was “<=0.25 μg/mL” and the “MIC ATB in combination” value ([2]; EAE UFR201, AF1 @ 8 μg/mL) was “<=0.25 μg/mL”. The “MIC ATB in combination” value ([2]; EAE UFR202, AF1 @ 4 μg/mL) was 16 µg/mL, the “MIC ATB in combination” value ([2]; EAE UFR202, AF1 @ 8 μg/mL) was 4 µg/mL and the “MIC ATB in combination” value ([2]; EAE UFR213, AF1 @ 4 μg/mL) was 1 µg/mL. For the same molecule, the “MIC ATB in combination” value ([2]; EAE UFR213, AF1 @ 8 μg/mL) was 0.5 µg/mL, the MIC ([2]; EAE UFR199, alone) was > 1020 µg/mL and the MIC ([2]; strain EAE 49469 (AmpC), ATB alone) was > 128 µg/mL. For the same molecule, the MIC ([2]; strain EAE 49469 (AmpC), CLA @ 4 μg/ml+ ATB) was > 128 µg/mL, the MIC ([2]; strain EAE 200261 (TEM-x, AmpC), ATB alone) was > 128 µg/mL and the MIC ([2]; strain EAE 200261 (TEM-x, AmpC), CLA @ 4 μg/ml+ ATB) was > 128 µg/mL. For the same molecule, the MIC ([2]; strain EAE UFR199 (TEM-1b, SHV-12, KPC-2, OXA-9), ATB alone) was > 1020 µg/mL, the MIC ([2]; strain EAE UFR199 (TEM-1b, SHV-12, KPC-2, OXA-9), CLA @ 4 μg/ml+ ATB) was 16 µg/mL and the MIC ([2]; strain EAE UFR201 (TEM-1, SHV-12, CTX-M-15), ATB alone) was > 128 µg/mL. For the same molecule, the MIC ([2]; strain EAE UFR201 (TEM-1, SHV-12, CTX-M-15), CLA @ 4 μg/ml+ ATB) was ≤ 0.25 µg/mL, the MIC ([2]; strain EAE UFR202 (TEM-24), ATB alone) was > 128 µg/mL and the MIC ([2]; strain EAE UFR202 (TEM-24), CLA @ 4 μg/ml+ ATB) was > 128 µg/mL. For the same molecule, the MIC ([2]; strain EAE UFR213 (TEM-24), ATB alone) was > 128 µg/mL, the MIC ([2]; strain EAE UFR213 (TEM-24), CLA @ 4 μg/ml+ ATB) was > 128 µg/mL and the “MIC ATB in combination” value ([3]; PMI UFR82, AF1 @ 4 μg/mL) was “<=0.25 μg/mL”. The “MIC ATB in combination” value ([3]; PMI UFR82, AF1 @ 8 μg/mL) was “<=0.25 μg/mL”, the “MIC ATB in combination” value ([3]; PMI UFR120, AF1 @ 4 μg/mL) was “<=0.25 μg/mL” and the “MIC ATB in combination” value ([3]; PMI UFR120, AF1 @ 8 μg/mL) was “<=0.25 μg/mL”. For the same molecule, the “MIC ATB in combination” value ([3]; PMI UFR121, AF1 @ 4 μg/mL) was “<=0.25 μg/mL”, the “MIC ATB in combination” value ([3]; PMI UFR121, AF1 @ 8 μg/mL) was “<=0.25 μg/mL” and the “MIC ATB in combination” value ([3]; PMI UFR122, AF1 @ 4 μg/mL) was “<=0.25 μg/mL”. The “MIC ATB in combination” value ([3]; PMI UFR122, AF1 @ 8 μg/mL) was “<=0.25 μg/mL”, the “MIC ATB in combination” value ([3]; PMI UFR123, AF1 @ 4 μg/mL) was “<=0.25 μg/mL” and the “MIC ATB in combination” value ([3]; PMI UFR123, AF1 @ 8 μg/mL) was “<=0.25 μg/mL”. For the same molecule, the “MIC ATB in combination” value ([3]; PMI UFR124, AF1 @ 4 μg/mL) was “<=0.25 μg/mL”, the “MIC ATB in combination” value ([3]; PMI UFR124, AF1 @ 8 μg/mL) was “<=0.25 μg/mL” and the “MIC ATB in combination” value ([3]; PMI UFR125, AF1 @ 4 μg/mL) was “<=0.25 μg/mL”. For the same molecule, the “MIC ATB in combination” value ([3]; PMI UFR125, AF1 @ 8 μg/mL) was “<=0.25 μg/mL”, the “MIC ATB in combination” value ([3]; PMI UFR126, AF1 @ 4 μg/mL) was 0.031 µg/mL and the “MIC ATB in combination” value ([3]; PMI UFR126, AF1 @ 8 μg/mL) was 0.016 µg/mL. The “MIC ATB in combination” value ([3]; PMI UFR127, AF1 @ 4 μg/mL) was “<=0.25 μg/mL”, the “MIC ATB in combination” value ([3]; PMI UFR127, AF1 @ 8 μg/mL) was “<=0.25 μg/mL” and the “MIC ATB in combination” value ([3]; PMI UFR129, AF1 @ 4 μg/mL) was “<=0.25 μg/mL”. The “MIC ATB in combination” value ([3]; PMI UFR129, AF1 @ 8 μg/mL) was “<=0.25 μg/mL”, the “MIC ATB in combination” value ([3]; PMI UFR130, AF1 @ 4 μg/mL) was “<=0.25 μg/mL” and the “MIC ATB in combination” value ([3]; PMI UFR130, AF1 @ 8 μg/mL) was “<=0.25 μg/mL”. For the same molecule, the “MIC ATB in combination” value ([3]; PMI UFR237, AF1 @ 4 μg/mL) was “<=0.25 μg/mL”, the “MIC ATB in combination” value ([3]; PMI UFR237, AF1 @ 8 μg/mL) was “<=0.25 μg/mL” and the MIC ([3]; PMI UFR126, alone) was 1020 µg/mL. For the same molecule, the MIC ([3]; PMI UFR127, alone) was > 128 µg/mL, the MIC ([3]; strain PMI UFR82 (CMY-2), ATB alone) was 8 µg/mL and the MIC ([3]; strain PMI UFR82 (CMY-2), CLA @ 4 μg/ml+ ATB) was 4 µg/mL. The MIC ([3]; strain PMI UFR120 (TEM-1, SHV-11, CTX-M-14), ATB alone) was 0.5 µg/mL, the MIC ([3]; strain PMI UFR120 (TEM-1, SHV-11, CTX-M-14), CLA @ 4 μg/ml+ ATB) was ≤ 0.25 µg/mL and the MIC ([3]; strain PMI UFR121 (TEM-1, TEM-52), ATB alone) was 128 µg/mL. For the same molecule, the MIC ([3]; strain PMI UFR121 (TEM-1, TEM-52), CLA @ 4 μg/ml+ ATB) was ≤ 0.25 µg/mL, the MIC ([3]; strain PMI UFR122 (TEM-1, CTX-M-15), ATB alone) was 1 µg/mL and the MIC ([3]; strain PMI UFR122 (TEM-1, CTX-M-15), CLA @ 4 μg/ml+ ATB) was ≤ 0.25 µg/mL. The MIC ([3]; strain PMI UFR123 (CTX-M-1), ATB alone) was 128 µg/mL, the MIC ([3]; strain PMI UFR123 (CTX-M-1), CLA @ 4 μg/ml+ ATB) was ≤ 0.25 µg/mL and the MIC ([3]; strain PMI UFR124 (CTX-M-2), ATB alone) was > 128 µg/mL. For the same molecule, the MIC ([3]; strain PMI UFR124 (CTX-M-2), CLA @ 4 μg/ml+ ATB) was ≤ 0.25 µg/mL, the MIC ([3]; strain PMI UFR125 (CTX-M-71), ATB alone) was 0.5 µg/mL and the MIC ([3]; strain PMI UFR125 (CTX-M-71), CLA @ 4 μg/ml+ ATB) was ≤ 0.25 µg/mL. For the same molecule, the MIC ([3]; strain PMI UFR126 (TEM-2, PER-1), ATB alone) was 1020 µg/mL, the MIC ([3]; strain PMI UFR126 (TEM-2, PER-1), CLA @ 4 μg/ml+ ATB) was ≤ 0.25 µg/mL and the MIC ([3]; strain PMI UFR127 (VEB-1), ATB alone) was > 128 µg/mL. The MIC ([3]; strain PMI UFR127 (VEB-1), CLA @ 4 μg/ml+ ATB) was ≤ 0.25 µg/mL, the MIC ([3]; strain PMI UFR129 (TEM-1, VEB-6), ATB alone) was > 128 µg/mL and the MIC ([3]; strain PMI UFR129 (TEM-1, VEB-6), CLA @ 4 μg/ml+ ATB) was ≤ 0.25 µg/mL. The MIC ([3]; strain PMI UFR130 (CMY-2), ATB alone) was 8 µg/mL, the MIC ([3]; strain PMI UFR130 (CMY-2), CLA @ 4 μg/ml+ ATB) was 8 µg/mL and the MIC ([3]; strain PMI UFR237 (VEB-6), ATB alone) was > 128 µg/mL. For the same molecule, the MIC ([3]; strain PMI UFR237 (VEB-6), CLA @ 4 μg/ml+ ATB) was ≤ 0.25 µg/mL.
